The text below walks through data of patent publication US4085111A, “1H-tetrazole derivatives” (Yoshitomi Pharmaceutical Industries, Ltd., priority 1974, dated 1978).

Molecules are shown by their SMILES.

In assay [1] the test system is histamine release from the peritoneal cavity. Nature of the assay: Histamine release from the peritoneal cavity (dextran i.p.). The assay is classed as in vivo, male Wistar rats. To be noted: Rattus norvegicus, ip; dose required for 50% inhibition; test compound i.p., dextran 180 mg/kg i.p.; rats. The protocol: Histamine release from the peritoneal cavity:
The method used was similar to that described by Hanahoe et al. (T.H.P. Hanahoe, A. Holliman, D. Gordon and W. Wieczorek, J. Pharm. Pharmac. 24, 666 (1972)). Groups of ten male Wistar rats (200-230 g) were injected intraperitoneally with 1 ml normal saline (0.9%) containing different amounts of test compound. A half minutes later they received an intraperitoneal injection of dextran (180 mg/kg, molecular weight about 250,000) or saline as vehicle control. Five minutes later the animals were killed, the peritoneal fluid was collected and centrifuged, and the supernatant was assayed fluorophotometrically for histamine. […] The percent inhibition was calculated using the following formula: [formula] The ED50, the dose required for 50% inhibition, was calculated from the dose-responsive curve.

In assay [2] the test system is SRS-A release from lung tissue. The assay can be described thus: Release of slow reacting substance of anaphylaxis (SRS-A) from sensitized lung tissue. Particulars: Cavia porcellus, sensitized guinea-pig lung tissue, egg albumen 100 μg/ml; for inhibition at 0.01 µg/mL: 0.01 μg/ml; for inhibition at 0.1 µg/mL: 0.1 μg/ml. The class given is cell-based, Guinea-pigs. How it is done: Release of slow reacting substance of analphylaxis (SRS-A):
Guinea-pigs were sensitized with egg albumen, which was administered as a 10% solution, 100 mg both intraperitoneally and subcutaneously. Three to four weeks later the animals were killed by a blow on the head and the heart and lungs removed from the body and cleaned of blood. The lung tissue was dissected free from the heart, trachea and major bronchioles and then finely chopped. Portions of the lung tissue in 5 ml of Tyrode solution were preincubated with each test solution (50 μl) containing a test compound for 5 minutes at 37° C, to those were added 50 μl of egg albumen (100 μg/ml in a final concentration). The incubation mixture were further incubated for 15 minutes at 37° C. After centrifugation, the supernatant was assayed for SRS-A. The activity of SRS-A was assayed on the isolated guinea-pig ileum in the presence of atropine (5 × 10^-8 g/ml) and pyribenzamine (10^-7 g/ml). The percent inhibition was calculated using the following formula: [formula]

Assay [3] has as its system histamine release from the peritoneal cavity. Particulars: dextran-induced histamine release, in this experimental method (Hanahoe et al.); cited from earlier work.

The ED50 is the midpoint of the dose-response relation. The term inhibition denotes the share of the control response that was lost under treatment. Turning to `O=c1c2cccnc2oc2c(Cl)cc(-c3nnn[nH]3)cc12` [Compound B, 9-chloro-7-(5-1H-tetrazolyl)-5-oxo-5-H-[1]benzopyrano[2,3-b]-pyridine], the ED50 in assay [1] came out at 0.25 µg/kg. Besides, in assay [2], the inhibition at 0.01 µg/mL is 19% and the inhibition at 0.1 µg/mL was found to be 22.6%.
Regarding `O=C(O)c1cc(=O)c2c(OCC(O)COc3cccc4oc(C(=O)O)cc(=O)c34)cccc2o1` [disodium cromoglycate], in assay [3], the “inhibition of the release of histamine” value is “inhibits markedly”.
In assay [1], `O=c1c2cc(-c3nnn[nH]3)ccc2oc2ncccc12` [Compound A, 7-(5-1H-tetrazolyl)-5-oxo-5H-[1]benzopyrano[2,3-b]pyridine] showed a median effective dose (ED50) of 1 µg/kg. In assay [2], the inhibition at 0.01 µg/mL was 25.2% and the inhibition at 0.1 µg/mL worked out at 35.3%.
